# Source: publication PMC8287944, “5-Fluorouracil blocks quorum-sensing of biofilm-embedded methicillin-resistant Staphylococcus aureus in mice” (Nucleic Acids Research, 2021)
# Columns and labels:
# [1] = system: AI-2 production by HEK-293AI2 cells expressing MTAN and LuxS; assay: HEK-293AI2 / V. harveyi (MM32) AI-2 detection platform (AI-2 production by engineered human cells); assay type: cell-based, human cells; MTAN and LuxS derived from E. coli; settings: Homo sapiens, 24 h, HEK-293AI2 cells exposed 24 h; AI-2 in supernatant read by V. harveyi MM32 bioluminescence
# Protocol: LuxS (MF688636) and MTAN (MF688635) transgenes derived from E. coli were codon-optimized for stable expression in mammalian cells. For the generation of double stable HEK-293-derived cell line HEK-293AI2 transgenic for simultaneous constitutive PhEFIα-driven MTAN and PhCMV-driven LuxS-eYFP expression, 250,000 cells were first transfected with 2000 ng of pFS168 (PhEFIα-MTAN-pA) and selected in culture medium containing 20 μg/ml blasticidin (cat. no. ant-bl-1; InvivoGen, San Diego, CA, USA) for two weeks. […] After 17 days of selection in medium containing 200 μg/ml (w/v) zeocin (cat. no. ant-zn-1; Invivogen, San Diego, CA, USA) and 20 μg/ml blasticidin, resistant monoclonal cells (HEK-293sFS26cx) were obtained by limiting dilution cloning and screened for AI-2 activity in their supernatants. […] The cell line was regularly tested for the absence of mycoplasma.
# 20 μl of HEK-293AI2 cells (10^4 cells per well) were resuspended in 20 μl Dulbecco's modified Eagle's medium (DMEM; Thermo Fisher, Basel, Switzerland, low glucose, without phenol red, cat. no. 11880–028) supplemented with 4 mM L-glutamine (Thermo Fisher, Basel, Switzerland, cat. no. 25030-024), 30 μg/ml kanamycin and 1% FCS and seeded into a poly-L-lysine-coated Black Greiner clear-bottom 384-well plate (cat. no. 3845; Corning, New York, USA) using a Multidrop Combi Reagent Dispenser (cat. no. 5840300; Thermo Fisher, Basel, Switzerland). Cells were incubated for 20 h and then 20 nL of individual compounds (stock solution in 5 mM in DMSO) or controls (stock solutions of novobiocin, 10 mM in DMSO; staurosporin, 20 mM in DMSO) were transferred with Echo 550 liquid handler (Labcyte, San Jose, CA, USA) into the plate.
# Compound-treated cells were cultivated for 24 hours and the cell culture supernatants (10 μl) were transferred to dry black polystyrene 384-well plates (Corning, New York, USA, cat. no. 3571). The AI-2 activity was quantified by adding 40 μl per 384-well of V. harveyi MM32 AI-2 reporter strain, diluted 1:500 in AB-Medium from a stationary overnight culture grown in Luria Marine (LM)-medium containing 20 g of NaCl, 10 g of Bacto Tryptone (Difco Laboratories), and 5 g of yeast extract (BBL) ([25]). Plates were sealed with BREATHseal™ (cat. no. 7.676 050; Greiner Bio-One, Frickenhausen, Germany) and incubated for 4 h at 30°C and 200 rpm on a Multitron Pro shaker (Infors, Bottmingen, Switzerland). Bioluminescence was measured on an Envision 2104 Multilabel plate reader (Perkin Elmer, Waltham, USA) with 1 s integration time. […] The initial hit inclusion criteria were a toxicity score of less than 50% and an AI-2 activity reduction below the average of all compound activity three times the standard deviation (-49.39% of activity).
# Figure 2. Cell-based primary screen for AI-2 biosynthesis inhibitors. (A) Detailed assay protocol of the primary screen using engineered mammalian cells to identify inhibitors of quorum sensing. […] Aliquots of 10 μl of culture supernatants were transferred to black-bottomed assay plates and mixed with 40 μl of V. harveyi MM32 (AI-2 biosensor). AI-2-induced bioluminescence was measured 4 h later and normalized against the controls. In a secondary screen, the dose-response relationships of hit compounds are analyzed. To simultaneously assess effects on cell viability, compound-treated cells were supplemented with PrestoBlue and incubated for 1 h prior to resorufin fluorescence quantification. (B) Z’-evaluation of the AI-2 inhibitor assay.
# MRSA ATCC 43300 [2] = assay: AI-2 activity of MRSA ATCC 43300; assay type: cell-based, Staphylococcus aureus; settings: MRSA ATCC 43300, 3 h, different 5-FU concentrations
# Protocol: To confirm that the phenotype could be restored, 1 μM synthetic (S)-4,5-dihydroxy-2,3-pentanedione (DPD) (Biosynth Carbosynth, Staad, Switzerland) was used. After 3 h under static conditions at 37°C, the supernatant was analysed for AI-2 activity with V. harveyi (MM32).
# (§1) Figure 4. Bioactivity of 5-FU against MRSA ATCC 43300. (A) Quorum sensing-associated AI-2 activity of MRSA 43300 grown for 3 h with different 5-FU concentrations. (B) Effect of different 5-FU concentrations on MRSA 43300 growth. (C) Interference with biofilm formation. (D) Effect on adherent MRSA 43300. Data points represent three biological replicates expressed as mean ± SD (**P < 0.01; ***P < 0.001; ****P < 0.0001).
# Figure 5. Phenotype restoration with synthetic AI-2 supplementation. AI-2 activity of MRSA ATCC 43300 was evaluated with and without 1 μM DPD in the presence of different 5-FU concentrations. The dashed line indicates the baseline level of AI-2 of MRSA ATCC 43300 in the absence of 5-FU. Values represent 3 biological replicates expressed as mean ± SD (**P < 0.01; ****P < 0.0001).
# MRSA ATCC 43300 [3] = assay: Biofilm formation (Crystal Violet); assay type: cell-based, Staphylococcus aureus; settings: 0.1 μM 5-FU, 24 h
# Protocol: To quantify the formation of bacterial biofilms, bacteria were grown for 24 h in the presence of potential inhibitors in 96-well polystyrene plates. The plates were then washed three times with distilled water. Remaining cells were stained with 0.1% Crystal Violet solution (5% methanol, 5% isopropanol) and further washed to remove excess dye. Crystal Violet was redissolved in 20% acetic acid solution and the absorbance of the solution was measured at 600 nm.
# as §1
smiles,measurement,setting,value
O=c1[nH]cc(F)c(=O)[nH]1 [5-Fluorouracil],IC50,[1],460 nM
same,AI-2 production and quorum-sensing capacity of MRSA,MRSA ATCC 43300 [2],dose-dependently reduced
same,Biofilm formation of MRSA,MRSA ATCC 43300 [3],significantly decreased biofilm formation
